{"source": "patent US12698265B2", "about": "“Plant extracts enriched with ipolamiide derivatives as immunosuppressants for treating immunological disorders” (priority 2017, dated 2026)", "key": {"[1]": {"system": "CD8+ T cells activated by αCD3/CD28", "experiment": "Proliferation of CD8+ T cells activated by αCD3/CD28 (BrdU incorporation, Biotrak ELISA)", "format": "cell-based", "settings": "3, 10 and 30 μM (extract concentration expressed in ipolamiide); human CD8+ T cells from PBMCs; FIG. 2A", "method": "(§1) FIG. 2—Effect of the aqueous extract of Stachytarpheta cayennensis (3, 10 and 30 μM, concentration expressed in ipolamiide) and isolated ipolamiide (3, 10 and 30 μM) on the proliferation of CD8+ T cells activated by αCD3/CD28 (A) and IFNγ production (B). The effect of the pool of compounds (IV to VIII) and the five novel isolated compounds (IV to VIII) generated after the acid hydrolysis of ipolamiide (30 μM) was also evaluated in the same experiments, proliferation of CD8+ T cells activated by αCD3/CD28 (C) and IFNγ production (D). Tacrolimus (0.5 μM) was used as the positive control for all experiments. The data are the mean±SD of three replicates.\n(§2) The extract of Stachytarpheta cayennensis, ipolamiide and derivatives were studied in an experimental in vitro immunological model involving CD8+ T cells and IFNγ. […]\n(§3) Peripheral blood mononuclear cells (PBMCs) from healthy volunteers were isolated from leukocyte layers by Ficoll-Hystopaque centrifugation. […] Specifically, it was evaluated the incorporation of BrdU through the Biotrak ELISA System (GE Healthcare, RPN250) per the manufacturer's instructions. The methodology for quantification of interferon gamma comprised the use of the Human IFNγ ELISA Ready-SET-Go kit (eBiosciences 88-7316-88) and followed the manufacturer's instructions. […]"}, "IFNγ": {"system": "IFNγ", "experiment": "IFNγ production by αCD3/CD28-activated CD8+ T cells (Human IFNγ ELISA)", "format": "cell-based", "settings": "3, 10 and 30 μM; human CD8+ T cells activated with αCD3/CD28; FIG. 2B", "method": "as §1, §2, §3"}}}
{"smiles": "COC(=O)C1=CO[C@@H](O[C@@H]2O[C@H](CO)[C@@H](O)[C@H](O)[C@H]2O)[C@@H]2[C@@](C)(O)CC[C@]12O", "note": "[ipolamiide]", "values": [{"measurement": "activation / proliferation of CD8+ T cells induced by αCD3/CD28", "setting": "[1]", "result": "had no effect"}, {"measurement": "secretion of IFNγ", "setting": "IFNγ", "result": "had no effect"}]}
